In the NIST ThermoML archive (doi:10.1016/j.tca.2012.01.007):

Columns and labels:
[1] = wn = mass fraction of the nth substance listed; conditions: 101 kPa, Liquid, Vibrating tube method
[2] = 101 kPa, Liquid, Vibrating tube method

CO [methanol] + OCCNCCO
[1], w2 = 0
Conditions | mass density [kg/m3]
283.15 K | 801.436
293.15 K | 792.069
303.15 K | 782.606
313.15 K | 773.049
323.15 K | 763.363
333.15 K | 753.506

CCO [ethanol] + OCCNCCO
[1], w2 = 0
Conditions | mass density [kg/m3]
278.15 K | 802.686
283.15 K | 798.458
293.14 K | 789.938
303.14 K | 781.332
313.16 K | 772.577
323.14 K | 763.677
333.14 K | 754.521
343.15 K | 745.054
348.14 K | 740.206

OCCNCCO [diethanolamine] + CO
[1]
Conditions | mass density [kg/m3]
283.14 K, w1 = 0.5999 | 976.523
283.15 K, w1 = 0.1 | 827.828
283.15 K, w1 = 0.2 | 855.383
283.15 K, w1 = 0.3 | 883.986
283.15 K, w1 = 0.3999 | 913.669
283.15 K, w1 = 0.5002 | 945.053
283.15 K, w1 = 0.8001 | 1038.06
283.15 K, w1 = 0.831 | 1047.98
283.15 K, w1 = 0.9004 | 1070.41
283.15 K, w1 = 0.9209 | 1077.24
283.16 K, w1 = 0.6997 | 1006.57
293.14 K, w1 = 0.1 | 818.746
293.14 K, w1 = 0.9209 | 1070.68
293.15 K, w1 = 0.2 | 846.577
293.15 K, w1 = 0.3 | 875.502
293.15 K, w1 = 0.3999 | 905.478
293.15 K, w1 = 0.5002 | 937.232
293.15 K, w1 = 0.5999 | 969.048
293.15 K, w1 = 0.6997 | 999.095
293.15 K, w1 = 0.8001 | 1030.93
293.15 K, w1 = 0.9004 | 1063.79
293.16 K, w1 = 0.831 | 1040.93
303.14 K, w1 = 0.1 | 809.6
303.14 K, w1 = 0.5999 | 961.458
303.15 K, w1 = 0.2 | 837.727
303.15 K, w1 = 0.3 | 866.962
303.15 K, w1 = 0.3999 | 897.232
303.15 K, w1 = 0.5002 | 929.334
303.15 K, w1 = 0.6997 | 991.41
303.15 K, w1 = 0.8001 | 1023.79
303.15 K, w1 = 0.831 | 1033.88
303.15 K, w1 = 0.9004 | 1057.05
303.15 K, w1 = 0.9209 | 1064.03
313.14 K, w1 = 0.1 | 800.368
313.15 K, w1 = 0.2 | 828.795
313.15 K, w1 = 0.3 | 858.34
313.15 K, w1 = 0.3999 | 888.909
313.15 K, w1 = 0.5002 | 921.353
313.15 K, w1 = 0.5999 | 953.776
313.15 K, w1 = 0.6997 | 983.97
313.15 K, w1 = 0.8001 | 1016.6
313.15 K, w1 = 0.831 | 1026.78
313.15 K, w1 = 0.9004 | 1050.22
313.15 K, w1 = 0.9209 | 1057.29
323.14 K, w1 = 0.1 | 791.018
323.15 K, w1 = 0.2 | 819.75
323.15 K, w1 = 0.3 | 849.609
323.15 K, w1 = 0.3999 | 880.486
323.15 K, w1 = 0.5002 | 913.261
323.15 K, w1 = 0.5999 | 945.981
323.15 K, w1 = 0.6997 | 976.456
323.15 K, w1 = 0.8001 | 1009.28
323.15 K, w1 = 0.831 | 1019.63
323.15 K, w1 = 0.9004 | 1043.29
323.15 K, w1 = 0.9209 | 1050.47
333.14 K, w1 = 0.1 | 781.504
333.14 K, w1 = 0.5999 | 938.046
333.14 K, w1 = 0.9209 | 1043.49
333.15 K, w1 = 0.2 | 810.556
333.15 K, w1 = 0.3 | 840.739
333.15 K, w1 = 0.3999 | 871.934
333.15 K, w1 = 0.5002 | 905.025
333.15 K, w1 = 0.6997 | 968.833
333.15 K, w1 = 0.8001 | 1002.21
333.15 K, w1 = 0.831 | 1012.39
333.15 K, w1 = 0.9004 | 1036.23

OCCNCCO [diethanolamine]
[2]
Conditions | mass density [kg/m3]
278.14 K | 1107.05
283.14 K | 1103.88
293.15 K | 1097.51
303.14 K | 1091.06
313.14 K | 1084.49
323.14 K | 1077.78
333.14 K | 1071
343.14 K | 1064.14
348.14 K | 1060.68
353.15 K | 1056.83

O [water] + OCCNCCO
[1], w2 = 0
Conditions | mass density [kg/m3]
283.15 K | 999.964
293.15 K | 998.557
303.15 K | 995.999
313.15 K | 992.57
323.15 K | 988.391
333.15 K | 983.453
343.14 K | 977.483
353.14 K | 972.2

O [water]
[2]
Conditions | mass density [kg/m3]
283.15 K | 999.964
293.15 K | 998.557
303.15 K | 995.999
313.15 K | 992.57
323.15 K | 988.391
333.15 K | 983.453
343.14 K | 977.483
353.14 K | 972.2

CO [methanol]
[2]
Conditions | mass density [kg/m3]
283.15 K | 801.436
293.15 K | 792.069
303.15 K | 782.606
313.15 K | 773.049
323.15 K | 763.363
333.15 K | 753.506

CCO [ethanol]
[2]
Conditions | mass density [kg/m3]
278.15 K | 802.686
283.15 K | 798.458
293.14 K | 789.938
303.14 K | 781.332
313.16 K | 772.577
323.14 K | 763.677
333.14 K | 754.521
343.15 K | 745.054
348.14 K | 740.206
